Data reported in patent EP0291321A2, “Element and method for determination of creatinine or creatine” (EASTMAN KODAK COMPANY (a New Jersey corporation), priority 1987, dated 1988).

Target: T1, sarcosine oxidase (Bacillus sp., UniProt P40859)
T1 sequence (P40859 1-390): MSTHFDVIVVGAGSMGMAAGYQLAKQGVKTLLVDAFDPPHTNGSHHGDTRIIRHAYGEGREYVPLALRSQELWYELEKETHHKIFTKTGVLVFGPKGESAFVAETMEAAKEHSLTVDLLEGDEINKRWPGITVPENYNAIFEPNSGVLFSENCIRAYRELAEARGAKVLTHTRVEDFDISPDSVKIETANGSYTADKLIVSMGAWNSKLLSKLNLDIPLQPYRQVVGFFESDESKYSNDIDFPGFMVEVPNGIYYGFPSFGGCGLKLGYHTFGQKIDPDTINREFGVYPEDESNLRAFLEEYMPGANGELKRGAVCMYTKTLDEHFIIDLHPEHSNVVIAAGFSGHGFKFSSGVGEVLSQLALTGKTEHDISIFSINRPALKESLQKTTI
Assay: sarcosine oxidase activity on substrate at various pH (rate of change in absorbance per minute)
Type: biochemical
Conditions: for Ratio (B/A): rate with N-ethyl glycine divided by rate with sarcosine
Procedure: Separate assays at various pH were conducted to determine the rate of change in absorbance per minute (ΔA/min) for sarcosine oxidase activity on its substrate sarcosine, and on N-ethyl glycine. The assay is based on the following reactions. [drawing 1]

| Compound | rate of change in absorbance per minute (ΔA/min) for sarcosine oxidase activity (pH 6.5) | Ratio (B/A) (pH 6.5) | rate of change in absorbance per minute (ΔA/min) for sarcosine oxidase activity (pH 7.0) | Ratio (B/A) (pH 7.0) | rate of change in absorbance per minute (ΔA/min) for sarcosine oxidase activity (pH 7.5) | Ratio (B/A) (pH 7.5) |
| --- | --- | --- | --- | --- | --- | --- |
| CCNCC(=O)O [N-Ethyl Glycine, N-ethyl glycine] | 0.017 ΔA/min | 0.011 | 0.053 ΔA/min | 0.024 | 0.134 ΔA/min | 0.048 |
| CNCC(=O)O [Sarcosine, sarcosine] | 1.56 ΔA/min | – | 2.20 ΔA/min | – | 2.76 ΔA/min | – |
